Measured values published in patent publication US12723063B2, “GIPR-agonist compounds” (Eli Lilly and Company, priority 2019, dated 2026).
*1 amine or outer side, *2 acyl side, *3 side chain or, on linkers, in order; H or OH if unused. Where a SMILES comes first, the peptide text is derived from it. Side-chain parts run from the residue outwards. [ ]: non-standard residue; d: D form. The star is where a group is joined. C20 diacid = O=C(O)CCCCCCCCCCCCCCCCCCC(=O)*; γGlu = O=C(O)[C@H](CCC(=O)[*:2])N[*:1]; αMeF = C[C@](N)(Cc1ccccc1)C(=O)O; 4Pal = N[C@@H](Cc1ccncc1)C(=O)O; αMeL = CC(C)C[C@](C)(N)C(=O)O; AEEA = NCCOCCOCC(=O)O; Aib = CC(C)(N)C(=O)O

Target: T1, human GIPR (Homo sapiens, UniProt P48546)
T1 construct: expressed in transfected cells; crude membranes
T1 sequence (P48546 22-466): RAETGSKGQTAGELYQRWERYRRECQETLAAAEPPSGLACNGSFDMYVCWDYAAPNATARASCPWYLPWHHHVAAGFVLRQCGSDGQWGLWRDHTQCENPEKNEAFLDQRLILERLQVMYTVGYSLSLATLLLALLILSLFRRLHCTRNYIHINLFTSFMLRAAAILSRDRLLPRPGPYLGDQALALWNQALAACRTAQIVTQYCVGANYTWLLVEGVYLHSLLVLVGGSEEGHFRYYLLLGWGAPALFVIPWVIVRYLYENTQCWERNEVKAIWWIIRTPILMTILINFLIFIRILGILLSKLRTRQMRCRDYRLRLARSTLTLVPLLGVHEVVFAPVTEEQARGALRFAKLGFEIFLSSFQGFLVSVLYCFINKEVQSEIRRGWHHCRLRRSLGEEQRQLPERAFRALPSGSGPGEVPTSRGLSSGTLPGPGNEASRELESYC
Assay: [125I]-GIP binding, SPA with WGA beads, 0.1% bacitracin
Details: geometric mean, read-out: hGIPR Ki
In short: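 Ki values are geometric means (SEM, n independent days), derived from four-parameter nonlinear regression of IC50. Membranes came from hGIPR-expressing CHO cells.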

SMILES: CC[C@H](C)[C@H](NC(=O)[C@H](CO)NC(=O)[C@H](Cc1ccc(O)cc1)NC(=O)[C@H](CC(=O)O)NC(=O)[C@H](CO)NC(=O)[C@@H](NC(=O)[C@](C)(Cc1ccccc1)NC(=O)[C@@H](NC(=O)CNC(=O)[C@H](CCC(=O)O)NC(=O)C(C)(C)NC(=O)[C@@H](N)Cc1ccc(O)cc1)[C@@H](C)O)[C@@H](C)CC)C(=O)N[C@@H](C)C(=O)N[C@@H](CC(C)C)C(=O)N[C@@H](CC(=O)O)C(=O)N[C@@H](CCCCN)C(=O)N[C@@H](CCCCNC(=O)COCCOCCNC(=O)COCCOCCNC(=O)CC[C@H](NC(=O)CCCCCCCCCCCCCCCCCCC(=O)O)C(=O)O)C(=O)N[C@@H](Cc1c[nH]cn1)C(=O)N[C@@H](CCC(N)=O)C(=O)NC(C)(C)C(=O)N[C@@H](CC(=O)O)C(=O)N[C@@H](Cc1ccccc1)C(=O)N[C@H](C(=O)N[C@@H](CCC(=O)O)C(=O)N[C@@H](Cc1ccncc1)C(=O)N[C@@H](CC(C)C)C(=O)N[C@@H](CC(C)C)C(=O)N[C@@H](CCC(=O)O)C(=O)NCC(=O)NCC(=O)N1CCC[C@H]1C(=O)N[C@@H](CO)C(=O)N[C@@H](CO)C(=O)NCC(=O)N[C@@H](C)C(=O)N1CCC[C@H]1C(=O)N1CCC[C@H]1C(=O)N1CCC[C@H]1C(=O)N[C@@H](CO)C(N)=O)C(C)C [Example 44] (H-Y[Aib]EGT[αMeF]ISDYSIALDKK([AEEA-AEEA-γGlu-C20 diacid])HQ[Aib]DFVE[4Pal]LLEGGPSSGAPPPS-NH2)
- Ki: 0.059 nM

SMILES: CC[C@H](C)[C@H](NC(=O)[C@H](Cc1ccccc1)NC(=O)[C@@H](NC(=O)CNC(=O)[C@H](CCC(=O)O)NC(=O)C(C)(C)NC(=O)[C@@H](N)Cc1ccc(O)cc1)[C@@H](C)O)C(=O)N[C@@H](CO)C(=O)N[C@@H](CC(=O)O)C(=O)N[C@@H](Cc1ccc(O)cc1)C(=O)N[C@@H](CO)C(=O)N[C@H](C(=O)N[C@@](C)(CC(C)C)C(=O)N[C@@H](CC(C)C)C(=O)N[C@@H](CC(=O)O)C(=O)N[C@@H](CCCCN)C(=O)N[C@@H](CCCCNC(=O)COCCOCCNC(=O)COCCOCCNC(=O)CC[C@H](NC(=O)CCCCCCCCCCCCCCCCCCC(=O)O)C(=O)O)C(=O)N[C@@H](Cc1c[nH]cn1)C(=O)N[C@@H](CCC(N)=O)C(=O)NC(C)(C)C(=O)N[C@@H](CC(=O)O)C(=O)N[C@@H](Cc1ccccc1)C(=O)N[C@H](C(=O)N[C@@H](CCC(=O)O)C(=O)N[C@@H](Cc1ccncc1)C(=O)N[C@@H](CC(C)C)C(=O)N[C@@H](CC(C)C)C(=O)N[C@@H](CCC(=O)O)C(=O)N[C@H](C(=O)NCC(=O)N1CCC[C@H]1C(=O)N[C@@H](CO)C(=O)N[C@@H](CO)C(=O)NCC(=O)N[C@@H](C)C(=O)N1CCC[C@H]1C(=O)N1CCC[C@H]1C(=O)N1CCC[C@H]1C(=O)N[C@@H](CO)C(N)=O)[C@@H](C)O)C(C)C)[C@@H](C)CC [Example 45] (H-Y[Aib]EGTFISDYSI[αMeL]LDKK([AEEA-AEEA-γGlu-C20 diacid])HQ[Aib]DFVE[4Pal]LLETGPSSGAPPPS-NH2)
- Ki: 0.0663 nM

SMILES: CC[C@H](C)[C@H](NC(=O)[C@H](Cc1ccccc1)NC(=O)[C@@H](NC(=O)CNC(=O)[C@H](CCC(=O)O)NC(=O)C(C)(C)NC(=O)[C@@H](N)Cc1ccc(O)cc1)[C@@H](C)O)C(=O)N[C@@H](CO)C(=O)N[C@@H](CC(=O)O)C(=O)N[C@@H](Cc1ccc(O)cc1)C(=O)N[C@@H](CO)C(=O)N[C@H](C(=O)N[C@@](C)(CC(C)C)C(=O)N[C@@H](CC(C)C)C(=O)N[C@@H](CC(=O)O)C(=O)N[C@@H](CCCCN)C(=O)N[C@@H](CCCCNC(=O)COCCOCCNC(=O)COCCOCCNC(=O)CC[C@H](NC(=O)CCCCCCCCCCCCCCCCCCC(=O)O)C(=O)O)C(=O)N[C@@H](Cc1c[nH]cn1)C(=O)N[C@@H](CCC(N)=O)C(=O)NC(C)(C)C(=O)N[C@@H](CC(=O)O)C(=O)N[C@@H](Cc1ccccc1)C(=O)N[C@H](C(=O)N[C@@H](CCC(=O)O)C(=O)N[C@@H](Cc1ccncc1)C(=O)N[C@@H](CC(C)C)C(=O)N[C@@H](CC(C)C)C(=O)N[C@@H](CCC(=O)O)C(=O)N[C@@H](CCC(N)=O)C(=O)NCC(=O)N1CCC[C@H]1C(=O)N[C@@H](CO)C(=O)N[C@@H](CO)C(=O)NCC(=O)N[C@@H](C)C(=O)N1CCC[C@H]1C(=O)N1CCC[C@H]1C(=O)N1CCC[C@H]1C(=O)N[C@@H](CO)C(N)=O)C(C)C)[C@@H](C)CC [Example 46] (H-Y[Aib]EGTFISDYSI[αMeL]LDKK([AEEA-AEEA-γGlu-C20 diacid])HQ[Aib]DFVE[4Pal]LLEQGPSSGAPPPS-NH2)
- Ki: 0.0319 nM

SMILES: CC[C@H](C)[C@H](NC(=O)[C@H](Cc1ccccc1)NC(=O)[C@@H](NC(=O)CNC(=O)[C@H](CCC(=O)O)NC(=O)C(C)(C)NC(=O)[C@@H](N)Cc1ccc(O)cc1)[C@@H](C)O)C(=O)N[C@@H](CO)C(=O)N[C@@H](CC(=O)O)C(=O)N[C@@H](Cc1ccc(O)cc1)C(=O)N[C@@H](CO)C(=O)N[C@H](C(=O)N[C@@](C)(CC(C)C)C(=O)N[C@@H](CC(C)C)C(=O)N[C@@H](CC(=O)O)C(=O)N[C@@H](CCCCN)C(=O)N[C@@H](CCCCNC(=O)COCCOCCNC(=O)COCCOCCNC(=O)CC[C@H](NC(=O)CCCCCCCCCCCCCCCCCCC(=O)O)C(=O)O)C(=O)N[C@@H](Cc1c[nH]cn1)C(=O)N[C@@H](CCC(N)=O)C(=O)NC(C)(C)C(=O)N[C@@H](CC(=O)O)C(=O)N[C@@H](Cc1ccccc1)C(=O)N[C@H](C(=O)N[C@@H](CCC(=O)O)C(=O)N[C@@H](Cc1ccncc1)C(=O)N[C@@H](CC(C)C)C(=O)N[C@@H](CC(C)C)C(=O)N[C@@H](CCC(=O)O)C(=O)NCC(=O)NCC(=O)N1CCC[C@H]1C(=O)N[C@@H](CO)C(=O)N[C@@H](CO)C(=O)NCC(=O)N[C@@H](C)C(=O)N1CCC[C@H]1C(=O)N1CCC[C@H]1C(=O)N1CCC[C@H]1C(=O)N[C@@H](CO)C(N)=O)C(C)C)[C@@H](C)CC [Example 47] (H-Y[Aib]EGTFISDYSI[αMeL]LDKK([AEEA-AEEA-γGlu-C20 diacid])HQ[Aib]DFVE[4Pal]LLEGGPSSGAPPPS-NH2)
- Ki: 0.0452 nM

SMILES: CC[C@H](C)[C@H](NC(=O)[C@H](Cc1ccccc1)NC(=O)[C@@H](NC(=O)CNC(=O)[C@H](CCC(=O)O)NC(=O)C(C)(C)NC(=O)[C@@H](N)Cc1ccc(O)cc1)[C@@H](C)O)C(=O)N[C@@H](CO)C(=O)N[C@@H](CC(=O)O)C(=O)N[C@@H](Cc1ccc(O)cc1)C(=O)N[C@@H](CO)C(=O)N[C@H](C(=O)N[C@@](C)(CC(C)C)C(=O)N[C@@H](CC(C)C)C(=O)N[C@@H](CC(=O)O)C(=O)N[C@@H](CCCCN)C(=O)N[C@@H](CCCCNC(=O)COCCOCCNC(=O)COCCOCCNC(=O)CC[C@H](NC(=O)CCCCCCCCCCCCCCCCCCC(=O)O)C(=O)O)C(=O)N[C@@H](Cc1c[nH]cn1)C(=O)N[C@@H](CCC(N)=O)C(=O)NC(C)(C)C(=O)N[C@@H](CC(=O)O)C(=O)N[C@@H](Cc1ccccc1)C(=O)N[C@H](C(=O)N[C@@H](CCC(=O)O)C(=O)N[C@@H](Cc1ccncc1)C(=O)N[C@@H](CC(C)C)C(=O)N[C@@H](CC(C)C)C(=O)N[C@@H](C)C(=O)NCC(=O)NCC(=O)N1CCC[C@H]1C(=O)N[C@@H](CO)C(=O)N[C@@H](CO)C(=O)NCC(=O)N[C@@H](C)C(=O)N1CCC[C@H]1C(=O)N1CCC[C@H]1C(=O)N1CCC[C@H]1C(=O)N[C@@H](CO)C(N)=O)C(C)C)[C@@H](C)CC [Example 48]
- Ki: 0.0498 nM
